The values below come from ChEMBL document CHEMBL5579854, “Targeting Relevant HDACs to Support the Survival of Cone Photoreceptors in Inherited Retinal Diseases: Identification of a Potent Pharmacological Tool with In Vitro and In Vivo Efficacy” (J Med Chem, 2024).

One data set concerns 661W. Put plainly: Cytoprotective effect against H2O2-induced oxidative stress in mouse 661W cells assessed as increase in acetylated alpha-tubulin level incubated for 24 hrs followed by H2O2 treatment for 3 hrs by Western blot analysis. The format is functional, cell-based. Conditions: dose 10-30 µM, time 27.0 hrs; call rule not given here. Background: In western blotting, separated proteins are transferred to a membrane and probed.

The target in a further data set is T1, Cytochrome P450 1A (Homo sapiens, UniProt P04798+P05177).
T1 sequence (P04798 whole entry): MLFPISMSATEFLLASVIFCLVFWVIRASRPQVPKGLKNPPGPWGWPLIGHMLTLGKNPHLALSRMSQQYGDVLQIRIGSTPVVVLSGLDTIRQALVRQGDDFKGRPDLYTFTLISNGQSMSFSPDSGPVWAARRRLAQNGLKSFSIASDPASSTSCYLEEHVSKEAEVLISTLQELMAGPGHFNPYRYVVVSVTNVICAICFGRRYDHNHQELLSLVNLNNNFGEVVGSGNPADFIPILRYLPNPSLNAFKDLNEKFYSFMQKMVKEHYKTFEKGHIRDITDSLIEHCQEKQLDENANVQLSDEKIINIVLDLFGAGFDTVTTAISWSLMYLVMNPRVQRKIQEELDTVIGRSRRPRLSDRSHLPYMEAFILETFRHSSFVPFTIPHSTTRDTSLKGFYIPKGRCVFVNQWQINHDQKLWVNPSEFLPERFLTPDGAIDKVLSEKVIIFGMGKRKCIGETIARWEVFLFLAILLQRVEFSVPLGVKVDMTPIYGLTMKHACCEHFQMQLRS
T1 sequence (P05177 whole entry): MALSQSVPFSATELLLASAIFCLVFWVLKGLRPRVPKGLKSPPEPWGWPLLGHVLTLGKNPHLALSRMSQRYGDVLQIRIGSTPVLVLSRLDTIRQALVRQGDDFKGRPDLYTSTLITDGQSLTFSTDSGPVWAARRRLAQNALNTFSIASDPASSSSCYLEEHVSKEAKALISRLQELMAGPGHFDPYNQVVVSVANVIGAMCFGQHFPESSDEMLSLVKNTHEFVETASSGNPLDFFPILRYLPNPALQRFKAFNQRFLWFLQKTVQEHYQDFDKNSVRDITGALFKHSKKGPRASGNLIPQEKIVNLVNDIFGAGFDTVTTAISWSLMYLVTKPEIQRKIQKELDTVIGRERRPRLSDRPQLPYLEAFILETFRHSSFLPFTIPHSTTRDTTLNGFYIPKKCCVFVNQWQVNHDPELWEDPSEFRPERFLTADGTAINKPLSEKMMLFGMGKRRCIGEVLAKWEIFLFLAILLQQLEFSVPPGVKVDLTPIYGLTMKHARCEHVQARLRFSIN
Description: Inhibition of CYP1A in human liver microsomes using ECOD at 1 to 50 uM measured upto 30 mins by fluorescence based assay. The format is ADME, Microsome. As to conditions: 0.5 h, dose 1-50 µM.

In the case of `O=C(NO)c1ccc(CNC(=O)N2CCc3c(c4ccccc4n3Cc3ccccc3)C2)cc1`, in the data set with 661W, the Activity result is “Dose-Dependent Effect”. Besides, on Cytochrome P450 1A, the “inhibition (INH)” value is recorded as “Not Active”.
